The target of one data set is MraYSA (S. aureus MraY) (Staphylococcus aureus, UniProt Q2FZ93). The data set is described as follows: fluorescence assay of dansylated lipid I formation. Format: biochemical.
Another data set can be described thus: in vitro. Further details: WST-8 cell viability assay in HepG2 cells. To be noted: human, hepg2 cells; read-out: IC50. As to the method:
Cells were regularly passed to maintain exponential growth. HepG2 cells were sowed by 1.0 × 10^4 cells for each well in 96-well plate and cultured at 37 °C under 5% CO2 in air for 24 h. The cells were treated with a solution of test compounds in DMSO at various concentration and incubated at 37 °C under 5% CO2 in air for 24 h. After that, the WST-8 (Dojindo) cell proliferation assay was used. Cell viability was indicated as a percentage of the negative control (cells treated with DMSO only) and that value was fixed at 100%.

A further data set relates to T1, E. faecium ATCC 35667.
T1 construct: ATCC 35667
The data set is described as follows: microbe, parasite or virus in culture. The arrangement: CLSI broth microdilution MIC in MHB-II, single trial. To be noted: Enterococcus faecium, ATCC35667, 18 h; read-out: 8 MIC. Here is the method: (§1) MICs were determined by a microdilution broth method as recommended by the CLSI with MHB-II. For MICs of stable analogues, a 2-fold dilution of each compound was prepared in DMSO at 100-fold of the final concentration. The strains were inoculated with 5 × 10^5 cfu/mL in 96-well plates (each 100 μL/well), and 1 μL of DMSO solutions of the samples were added (contained less than 1% DMSO). The plates were incubated at 37 °C for 18 h and then MICs were determined. MICs of stable analogues in Table 1 were the highest value in three trials. MICs in Supplementary Table 1 were determined in one trial.

Data set [1] concerns T2, Staphylococcus aureus MRSA JE2.
T2 construct: JE2 (MRSA)
Briefly: microbe, parasite or virus in culture. The arrangement: CLSI broth microdilution MIC in MHB-II, single trial. The conditions noted are these: 18 h, read-out: 8 MIC. As to the method: as §1

Data set [2] deals with T3, E. faecium(VRE) ATCC 51559.
T3 construct: ATCC 51559 (VRE)
The data set is described as follows: microbe, parasite or virus in culture. The arrangement: CLSI broth microdilution MIC in MHB-II, single trial. The conditions noted are these: Enterococcus faecium, 18 h; read-out: 8 MIC. As to the method: as §1

Data set [3] deals with T4, E. faecium(VRE) ATCC 51858.
T4 construct: ATCC 51858 (VRE)
Briefly: microbe, parasite or virus in culture. The conditions noted are these: Enterococcus faecium, 18 h; read-out: 8 MIC. The arrangement: CLSI broth microdilution MIC in MHB-II, single trial. Here is the method: as §1

The subject of another data set is T5, S. aureus ATCC 29213.
T5 construct: ATCC 29213
The data set is described as follows: microbe, parasite or virus in culture. The arrangement: CLSI broth microdilution MIC in MHB-II, single trial. To be noted: Staphylococcus aureus, ATCC29213, 18 h; read-out: 8 MIC. As to the method:
as §1

In data set [4] the test system is T6, E. faecalis(VRE) ATCC 51299.
T6 construct: ATCC 51299 (VRE)
Briefly: microbe, parasite or virus in culture. The arrangement: CLSI broth microdilution MIC in MHB-II, single trial. The conditions noted are these: Enterococcus faecalis, 18 h; read-out: 8 MIC. Here is the method: as §1

A further data set has as its system Enterococcus faecium 2. The data set is described as follows: microbe, parasite or virus in culture. The conditions noted are these: Enterococcus faecium, 2, 18 h, read-out: MIC. Further details: CLSI broth microdilution MIC in MHB-II. Here is the method: as §1
The next data set concerns T7, Enterococcus faecium 10.
T7 construct: 10
The data set is described as follows: microbe, parasite or virus in culture. To be noted: Enterococcus faecium, 10, 18 h, read-out: MIC. The arrangement: CLSI broth microdilution MIC in MHB-II. As to the method: as §1

The subject of a further data set is T8, Enterococcus faecalis 26.
T8 construct: 26
Briefly: microbe, parasite or virus in culture. The arrangement: CLSI broth microdilution MIC in MHB-II. To be noted: Enterococcus faecalis, 26, 18 h, read-out: MIC. As to the method:
as §1

Another data set has as its system Enterococcus faecium 1. Briefly: microbe, parasite or virus in culture. Further details: CLSI broth microdilution MIC in MHB-II. The conditions noted are these: Enterococcus faecium, 1, 18 h, read-out: MIC. As to the method:
as §1

The test system of a further data set is T9, Enterococcus faecalis 22.
T9 construct: 22
The data set is described as follows: microbe, parasite or virus in culture. Further details: CLSI broth microdilution MIC in MHB-II. The conditions noted are these: Enterococcus faecalis, 22, 18 h, read-out: MIC. Here is the method:
as §1

The subject of another data set is Enterococcus faecium 5. The data set is described as follows: microbe, parasite or virus in culture. To be noted: Enterococcus faecium, 5, 18 h, read-out: MIC. Further details: CLSI broth microdilution MIC in MHB-II. As to the method:
as §1

The subject of data set [5] is T10, Staphylococcus aureus #2935.
T10 construct: #2935
The data set is described as follows: microbe, parasite or virus in culture. The arrangement: CLSI broth microdilution MIC in MHB-II. The conditions noted are these: Staphylococcus aureus, 18 h, read-out: MIC. As to the method:
as §1

For another data set, the system named is T11, Enterococcus faecalis 29.
T11 construct: 29
Briefly: microbe, parasite or virus in culture. The conditions noted are these: Enterococcus faecalis, 29, 18 h, read-out: MIC. The arrangement: CLSI broth microdilution MIC in MHB-II. Here is the method: as §1

The subject of another data set is Enterococcus faecium 4. The data set is described as follows: microbe, parasite or virus in culture. Further details: CLSI broth microdilution MIC in MHB-II. To be noted: Enterococcus faecium, 4, 18 h, read-out: MIC. Here is the method:
as §1

The test system of the next data set is T12, Enterococcus faecalis 27.
T12 construct: 27
The data set is described as follows: microbe, parasite or virus in culture. The arrangement: CLSI broth microdilution MIC in MHB-II. To be noted: Enterococcus faecalis, 27, 18 h, read-out: MIC. Here is the method: as §1

In another data set the test system is T13, Enterococcus faecalis 21.
T13 construct: 21
Briefly: microbe, parasite or virus in culture. To be noted: Enterococcus faecalis, 21, 18 h, read-out: MIC. The arrangement: CLSI broth microdilution MIC in MHB-II. Here is the method:
as §1

The subject of another data set is Enterococcus faecium 9. The data set is described as follows: microbe, parasite or virus in culture. Further details: CLSI broth microdilution MIC in MHB-II. To be noted: Enterococcus faecium, 9, 18 h, read-out: MIC. Here is the method:
as §1

The test system of a further data set is Enterococcus faecium 8. The data set is described as follows: microbe, parasite or virus in culture. Further details: CLSI broth microdilution MIC in MHB-II. The conditions noted are these: Enterococcus faecium, 8, 18 h, read-out: MIC. As to the method:
as §1

In the next data set the test system is T14, Enterococcus faecium 11.
T14 construct: 11
The data set is described as follows: microbe, parasite or virus in culture. The conditions noted are these: Enterococcus faecium, 11, 18 h, read-out: MIC. The arrangement: CLSI broth microdilution MIC in MHB-II. Here is the method:
as §1

≈ marks a conversion by molar mass, not a printed value.

MraYSA (S. aureus MraY), sequence (Q2FZ93 whole entry): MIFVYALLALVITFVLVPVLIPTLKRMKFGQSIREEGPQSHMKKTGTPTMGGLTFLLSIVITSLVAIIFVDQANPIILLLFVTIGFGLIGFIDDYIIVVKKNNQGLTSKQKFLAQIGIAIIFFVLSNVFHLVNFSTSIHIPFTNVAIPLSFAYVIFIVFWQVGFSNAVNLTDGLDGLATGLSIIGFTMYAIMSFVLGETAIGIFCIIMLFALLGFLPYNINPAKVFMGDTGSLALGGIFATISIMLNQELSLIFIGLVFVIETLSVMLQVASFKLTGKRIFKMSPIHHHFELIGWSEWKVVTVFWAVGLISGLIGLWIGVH

On MraYSA (S. aureus MraY), `CCCCCCCCCCCCCCCC(=O)N[C@@H](CCCNC(=N)N)C(=O)Nc1cccc(CN[C@H](C(=O)O)[C@H](O[C@@H]2O[C@H](CN)[C@@H](O)[C@H]2O)[C@H]2O[C@@H](n3ccc(=O)[nH]c3=O)[C@H](O)[C@@H]2O)c1` [compound 8, analogue 8] had an IC50 of 0.0018 µM. Besides, the CC50 at 24 h in “in vitro” amounted to 23 µM. Further, the MIC in the data set with E. faecium ATCC 35667 is 0.5 µg/mL (≈ 0.527 µM); in [1] it was 2 µg/mL (≈ 2.11 µM); in data set [2], 1 µg/mL (≈ 1.05 µM); in [3], 2 µg/mL (≈ 2.11 µM); in the data set on S. aureus ATCC 29213, 1 µg/mL (≈ 1.05 µM); in data set [4], 1 µg/mL (≈ 1.05 µM). The MIC was 2 µg/mL (≈ 2.11 µM) with Enterococcus faecium 2; 1 µg/mL (≈ 1.05 µM) in the data set on Enterococcus faecium 10; 0.25 µg/mL (≈ 0.264 µM) in the data set with Enterococcus faecalis 26; 1 µg/mL (≈ 1.05 µM) in the data set on Enterococcus faecium 1; 1 µg/mL (≈ 1.05 µM) in the data set with Enterococcus faecalis 22; 1 µg/mL (≈ 1.05 µM) with Enterococcus faecium 5. In addition, the MIC stood at 2 µg/mL (≈ 2.11 µM) in [5]; 0.13 µg/mL (≈ 0.137 µM) in the data set with Enterococcus faecalis 29; 1 µg/mL (≈ 1.05 µM) in the data set on Enterococcus faecium 4; 0.5 µg/mL (≈ 0.527 µM) with Enterococcus faecalis 27; 1 µg/mL (≈ 1.05 µM) in the data set with Enterococcus faecalis 21; 1 µg/mL (≈ 1.05 µM) in the data set with Enterococcus faecium 9. Also, the figures for the MIC in the data set on Enterococcus faecium 8 and in the data set with Enterococcus faecium 11 were 1 µg/mL (≈ 1.05 µM) and 2 µg/mL (≈ 2.11 µM), respectively.

Source of the values: article PMC11178787, “Development of a natural product optimization strategy for inhibitors against MraY, a promising antibacterial target” (Nature Communications, 2024).
